Assay results published in PubChem BioAssay (NCI).
Several values for one entry are separate records, joined by “and”; a condition that tells them apart may be missing. Identical values can stand only once.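 Each compound was tested at five concentrations against cells in 96-well plates for 48 hours. Abbreviation: GI50, concentration required for 50% inhibition of growth. Definition used: TGI = concentration required for complete inhibition of growth.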

Key:
Test in all cases: NCI-60 cell line screen, 48 h
[1] = tested on: CAKI-1 renal
[2] = tested on: EKVX NSCLC
[3] = tested on: HS 578T breast
[4] = tested on: IGROV1 ovarian
[5] = tested on: K-562 leukemia
[6] = tested on: OVCAR-3 ovarian
[7] = tested on: OVCAR-5 ovarian
[8] = tested on: SR leukemia
[9] = tested on: UACC-257 melanoma
[10] = tested on: UACC-62 melanoma

Structure (SMILES): CC(=O)OC1CC(n2cc(F)c(=O)[nH]c2=O)OC1CO (stereo not drawn)
- TGI [1]: > 100 µM
- TGI [2]: > 100 µM
- TGI [3]: > 100 µM
- TGI [4]: > 100 µM
- TGI [5]: > 100 µM
- TGI [6]: > 100 µM
- TGI [7]: > 100 µM
- TGI [8]: > 100 µM
- TGI [9]: > 100 µM
- TGI [10]: > 22.4 µM

Structure (SMILES): COc1ccc(C(=O)c2ccc(OC)c(OC)c2OC)cc1
- GI50 [1]: 1.21 µM
- TGI [1]: > 100 µM
- GI50 [2]: 4.77 µM
- TGI [2]: > 100 µM
- GI50 [3]: 0.915 µM
- TGI [3]: 3.65 µM
- GI50 [4]: 1.76 µM
- TGI [4]: > 100 µM
- GI50 [5]: 0.351 µM
- TGI [5]: > 100 µM
- GI50 [6]: 0.773 µM
- TGI [6]: 2.86 µM
- GI50 [7]: 8.52 µM
- TGI [7]: > 100 µM
- GI50 [8]: 0.347 µM
- TGI [8]: > 100 µM
- GI50 [9]: 3.73 µM
- TGI [9]: > 100 µM
- GI50 [10]: 1.47 µM
- TGI [10]: > 100 µM

Structure (SMILES): CCn1c2c(n(CC)c1=S)-c1c(n(CC)c(=S)n1CC)SSSS2
- TGI [1]: 33.1 µM
- TGI [2]: 21.4 µM
- TGI [3]: 91.1 µM
- TGI [4]: 34.3 µM
- TGI [5]: 8.97 µM
- TGI [6]: 17.9 µM
- TGI [7]: 27.8 µM
- TGI [8]: 9.17 µM
- TGI [9]: 22.6 µM
- TGI [10]: 18.6 µM

Structure (SMILES): C/C(=N\NC(=O)c1ccncc1)c1ccc2ccccc2c1O
- TGI [1]: > 84.5 µM
- TGI [2]: > 100 µM
- TGI [3]: 98.1 µM
- TGI [4]: 99.3 µM
- TGI [5]: > 100 µM
- TGI [6]: 3.59 µM
- TGI [7]: > 100 µM
- TGI [8]: 32 µM
- TGI [9]: 24.6 µM
- TGI [10]: 21.6 µM

Structure (SMILES): CCCCCC(O)C1C(=O)OC(C)C(O)/C=C/C=C/C=C/C=C\C=C(\C)C(O)CC(O)CC(O)CC(O)CC(O)CC(O)CC1O (stereo not drawn)
- GI50 [1]: > 100 µM
- TGI [1]: > 100 µM
- GI50 [2]: > 100 µM
- TGI [2]: > 100 µM
- GI50 [3]: > 100 µM
- TGI [3]: > 100 µM
- GI50 [4]: > 100 µM
- TGI [4]: > 100 µM
- GI50 [5]: > 100 µM
- TGI [5]: > 100 µM
- GI50 [6]: > 100 µM
- TGI [6]: > 100 µM
- GI50 [7]: > 100 µM
- TGI [7]: > 100 µM
- GI50 [8]: > 100 µM
- TGI [8]: > 100 µM
- GI50 [9]: > 100 µM
- TGI [9]: 50 µM and > 100 µM
- GI50 [10]: > 100 µM
- TGI [10]: > 100 µM

Structure (SMILES): C=C1C[C@](OC)([C@H](O)C(=O)N[C@@H](OC)[C@@H]2C[C@@H](O)C(C)(C)[C@@H](C[C@@H](COC)OC)O2)O[C@H](C)[C@@H]1C
- GI50 [1]: 0.00184 µM
- TGI [1]: 0.00544 µM
- GI50 [2]: 0.00162 µM
- TGI [2]: 0.00667 µM
- GI50 [3]: 0.00136 µM
- TGI [3]: 0.0041 µM
- GI50 [4]: 0.00295 µM
- TGI [4]: 0.0161 µM
- GI50 [6]: 0.00117 µM
- TGI [6]: 0.00368 µM
- GI50 [7]: 0.00182 µM
- TGI [7]: 0.00689 µM
- TGI [8]: > 1 µM
- GI50 [9]: 0.00211 µM
- TGI [9]: 0.00885 µM
- GI50 [10]: 0.00153 µM
- TGI [10]: 0.00524 µM

Structure (SMILES): CC(C)(C)[Si](C)(C)OCC1OC(n2cnc3c(NC(=O)c4ccccc4)ncnc32)CC1O (stereo not drawn)
- TGI [1]: > 100 µM
- TGI [2]: > 100 µM
- TGI [3]: 45.8 µM
- TGI [4]: 91.3 µM
- TGI [5]: 48.2 µM
- TGI [6]: 81.1 µM
- TGI [7]: > 100 µM
- TGI [8]: 49.6 µM
- TGI [9]: > 100 µM
- TGI [10]: 40.4 µM

Structure (SMILES): CN(C)c1ccc(C(=C2C=CC(=[N+](C)C)C=C2)c2ccc(N(C)C)cc2)cc1 (tested in a mixture with another compound)
- GI50 [1]: 0.276 µM
- TGI [1]: 1.38 µM
- GI50 [2]: 0.0725 µM
- TGI [2]: 6.45 µM
- GI50 [3]: 0.0479 µM
- TGI [3]: 1.9 µM
- GI50 [4]: 0.161 µM
- TGI [4]: 1.78 µM
- GI50 [5]: 0.047 µM
- TGI [5]: 2.86 µM
- GI50 [6]: 0.133 µM
- TGI [6]: 0.949 µM
- GI50 [7]: 0.559 µM
- TGI [7]: 1.77 µM
- GI50 [8]: 0.0313 µM
- TGI [8]: 0.106 µM
- GI50 [9]: 0.211 µM
- TGI [9]: 1.3 µM
- TGI [10]: 1.24 µM

Structure (SMILES): CSc1cnn(CCC#N)c(=O)n1
- TGI [1]: > 100 µM
- TGI [2]: > 100 µM
- TGI [3]: > 100 µM
- TGI [4]: > 100 µM
- TGI [5]: > 100 µM
- TGI [7]: > 100 µM
- TGI [8]: > 100 µM
- TGI [9]: > 100 µM
- TGI [10]: > 100 µM

Structure (SMILES): O=C1C(Br)=CC2(C=C1Br)CCN=c1c2c(O)c2nc3ccccc3c3ccnc1c23
- GI50 [1]: 1.01 µM
- TGI [1]: 3.29 µM
- GI50 [2]: 7.23 µM
- TGI [2]: 15.1 µM
- GI50 [3]: 4 µM
- TGI [3]: 17.1 µM
- GI50 [4]: 0.846 µM
- TGI [4]: 7.22 µM
- GI50 [5]: 1.8 µM
- TGI [5]: 7.9 µM
- GI50 [6]: 1.51 µM
- TGI [6]: 8.14 µM
- GI50 [7]: 7.22 µM
- TGI [7]: 17.6 µM
- GI50 [8]: 0.195 µM
- TGI [8]: 5.83 µM
- GI50 [10]: 3.31 µM
- TGI [10]: 10.7 µM

Structure (SMILES): CCOc1ccc([C@@H]2[C@@H](Oc3ccccc3)C(=O)N2c2cc(OC)c(OC)c(OC)c2)cc1
- GI50 [2]: 0.0937 µM
- TGI [2]: > 100 µM
- GI50 [3]: 0.0583 µM
- TGI [3]: > 100 µM
- GI50 [4]: 0.15 µM
- TGI [4]: > 100 µM
- GI50 [5]: 0.0367 µM
- TGI [5]: > 100 µM
- GI50 [6]: 0.0355 µM
- TGI [6]: > 100 µM
- GI50 [7]: 0.47 µM
- TGI [7]: > 100 µM
- GI50 [8]: 0.0483 µM
- TGI [8]: > 100 µM
- GI50 [9]: 86.4 µM
- TGI [9]: > 100 µM
- GI50 [10]: 0.0427 µM
- TGI [10]: > 100 µM

Structure (SMILES): CCN(CC)CCCNc1cccc2c(SCc3ccccc3)ccnc12
- GI50 [1]: 1.59 µM
- TGI [1]: 3.21 µM
- GI50 [2]: 2.24 µM
- TGI [2]: 6.71 µM
- GI50 [3]: 2.2 µM
- TGI [3]: 6.31 µM
- GI50 [4]: 1.9 µM
- TGI [4]: 3.75 µM
- GI50 [6]: 1.75 µM
- TGI [6]: 3.43 µM
- GI50 [7]: 2 µM
- TGI [7]: 3.76 µM
- GI50 [8]: 1.79 µM
- TGI [8]: 4.47 µM
- GI50 [9]: 2.09 µM
- TGI [9]: 3.85 µM
- GI50 [10]: 1.74 µM
- TGI [10]: 3.37 µM

Structure (SMILES): NC(=O)C1=NNc2ccccc2C(=O)N1c1ccccc1
- TGI [1]: > 100 µM
- TGI [2]: > 100 µM
- TGI [3]: > 100 µM
- TGI [4]: > 100 µM
- TGI [6]: > 100 µM
- TGI [7]: > 100 µM
- TGI [8]: > 100 µM
- TGI [9]: > 100 µM
- TGI [10]: > 100 µM
